“And” between values parts separate entries of the source, which are not always exact repeats. Identical values can stand only once. Inconclusive results and toxic doses are left out. The calls were made as follows: active = survival T/C of 150% or more; inactive = T/C below 125% in these data.
Tested on: BDF1 mice, P388 leukemia ip, median survival T/C
Assay: NCI In Vivo Anticancer Drug Screen. Data for tumor model P388 Leukemia (intraperitoneal) in B6D2F1 (BDF1) mice
Conditions: endpoint: median survival time, higher = longer survival
Summary of the method: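 In tumour-bearing mice, survival after compound treatment is set against the vehicle group and given as a quotient.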

[1] = dose: 400.0 mg/kg/injection, schedule: Q04DX003 (ip), vehicle: saline with Tween-80
[2] = dose: 50.0 mg/kg/injection, schedule: Q01DX009 (ip), vehicle: saline with Tween-80
[3] = dose: 100.0 mg/kg/injection, schedule: Q01DX009 (ip), vehicle: saline with Tween-80
[4] = dose: 200.0 mg/kg/injection, schedule: Q01DX009 (ip), vehicle: saline with Tween-80
[5] = dose: 50.0 mg/kg/injection, schedule: Q04DX003 (ip), vehicle: saline
[6] = dose: 100.0 mg/kg/injection, schedule: Q04DX003 (ip), vehicle: saline
[7] = dose: 100.0 mg/kg/injection, schedule: Q04DX003 (ip), vehicle: Klucel (hydroxypropylcellulose) (HPC)
[8] = dose: 400.0 mg/kg/injection, schedule: Q04DX003 (ip), vehicle: Klucel (hydroxypropylcellulose) (HPC)
[9] = dose: 100.0 mg/kg/injection, schedule: Q04DX003 (ip), vehicle: saline with Tween-80
[10] = dose: 200.0 mg/kg/injection, schedule: Q04DX003 (ip), vehicle: saline with Tween-80
[11] = dose: 200.0 mg/kg/injection, schedule: Q04DX003 (ip), vehicle: Klucel (hydroxypropylcellulose) (HPC)
[12] = dose: 100.0 mg/kg/injection, schedule: Q01DX009 (ip), vehicle: Klucel (hydroxypropylcellulose) (HPC)

Measured: T/C

CC1=C(Br)C(=O)C(c2c(C)c(Br)c(C)c([N+](=O)[O-])c2C)=C(Br)C1=O
inactive: dose: 100.0 mg/kg/injection, schedule: Q01DX001 (ip), vehicle: Klucel (hydroxypropylcellulose) (HPC) 100 % of control | dose: 200.0 mg/kg/injection, schedule: Q01DX001 (ip), vehicle: Klucel (hydroxypropylcellulose) (HPC) 110 % of control | dose: 400.0 mg/kg/injection, schedule: Q01DX001 (ip), vehicle: Klucel (hydroxypropylcellulose) (HPC) 100 % of control

COc1cc(/C=N\NC(=O)c2cccc(Cl)c2)ccc1N(CCCl)CCCl
active: dose: 264.0 mg/kg/injection, schedule: Q04DX003 (ip), vehicle: saline with Tween-80 173 % of control | [1] 234 % of control | dose: 600.0 mg/kg/injection, schedule: Q04DX003 (ip), vehicle: saline with Tween-80 260 % of control

CCCCCCC(NC(C)=O)C(C)=O (stereo not given)
inactive: [2] 104 % of control | [3] 101 % of control | [4] 101 % of control

CC[S+](CC)CC
inactive: dose: 12.5 mg/kg/injection, schedule: Q04DX003 (ip), vehicle: saline 109 % of control | dose: 25.0 mg/kg/injection, schedule: Q01DX001 (ip), vehicle: saline 100 % of control | dose: 25.0 mg/kg/injection, schedule: Q04DX003 (ip), vehicle: saline 109 % of control | dose: 50.0 mg/kg/injection, schedule: Q01DX001 (ip), vehicle: saline 100 % of control | [5] 109 % of control | dose: 100.0 mg/kg/injection, schedule: Q01DX001 (ip), vehicle: saline 100 % of control | [6] 100 % of control

CCOC(=O)c1cc(OC(C)=O)c2c(ccc3ccccc32)c1C
inactive: [7] 91 % of control | [8] 91 % of control

C/C(Cc1ccccc1)=N\O
inactive: [3] 100 % of control | [4] 110 % of control

CC1(C)N=C(N)N=C(N)N1c1ccc(OCC(=O)N2CCOCC2)c(Cl)c1
active: dose: 100.0 mg/kg/injection, schedule: Q01DX009 (ip), vehicle: saline sonified 172 % of control
inactive: dose: 66.0 mg/kg/injection, schedule: Q01DX009 (ip), vehicle: saline 107 % of control | dose: 100.0 mg/kg/injection, schedule: Q01DX009 (ip), vehicle: saline 103 % of control | dose: 150.0 mg/kg/injection, schedule: Q01DX009 (ip), vehicle: saline 111 % of control

CSc1nc(N)nc2nc[nH]c12
inactive: [2] 109 % of control | [3] 104 % of control

N=Cc1c(O)n(-c2ccccc2)c(=O)n(-c2ccccc2)c1=O
inactive: [3] 95 % of control | [4] 95 % of control | dose: 400.0 mg/kg/injection, schedule: Q01DX009 (ip), vehicle: saline with Tween-80 90 % of control

COc1cc(C(=O)OC2CC34CCNC35CC(OC5(OC)C2O)c2cc3c(cc24)OCO3)ccc1O (stereo not given)
inactive: dose: 0.5 mg/kg/injection, schedule: Q01DX010 (ip), vehicle: saline 100 % of control | dose: 1.0 mg/kg/injection, schedule: Q01DX010 (ip), vehicle: carboxymethylcellulose (CMC) 86 % of control | dose: 1.0 mg/kg/injection, schedule: Q01DX010 (ip), vehicle: saline 118 % of control | dose: 2.0 mg/kg/injection, schedule: Q01DX010 (ip), vehicle: saline 95 % of control

Cc1ncc2n1C=CN(C(=O)c1ccc([N+](=O)[O-])cc1)C2O (stereo not given)
inactive: dose: 50.0 mg/kg/injection, schedule: Q01DX009 (ip), vehicle: water 103 % of control | dose: 100.0 mg/kg/injection, schedule: Q01DX009 (ip), vehicle: water 94 % of control | dose: 100.0 mg/kg/injection, schedule: Q04DX003 (ip), vehicle: water 102 % of control | dose: 200.0 mg/kg/injection, schedule: Q01DX009 (ip), vehicle: water 93 % of control | dose: 200.0 mg/kg/injection, schedule: Q04DX003 (ip), vehicle: water 93 % of control | dose: 400.0 mg/kg/injection, schedule: Q01DX009 (ip), vehicle: water 94 % of control | dose: 400.0 mg/kg/injection, schedule: Q04DX003 (ip), vehicle: water 98 % of control

C[C@]12CCC(=O)C=C1CC[C@@H]1[C@@H]2[C@@H](O)C[C@@]2(C)[C@H]1CC[C@]2(C)O
inactive: [3] 86 % of control

C/C(=N/N(C)C)c1nc(N)nc(N)c1-c1ccc(Cl)cc1
inactive: dose: 25.0 mg/kg/injection, schedule: Q01DX001 (ip), vehicle: saline with Tween-80 102 % of control | dose: 50.0 mg/kg/injection, schedule: Q01DX001 (ip), vehicle: saline with Tween-80 109 % of control | dose: 100.0 mg/kg/injection, schedule: Q01DX001 (ip), vehicle: saline with Tween-80 90 % of control and 96 % of control

COC1(C(C)(C)C)C=C(C)/C(=C2\C(=O)Oc3c2cc(C)cc3C(C)(C)C)O1 (stereo not given)
inactive: [2] 99 % of control | [3] 92 % of control | [4] 96 % of control

CC(C)=NNS(=O)(=O)c1ccccc1
inactive: dose: 50.0 mg/kg/injection, schedule: Q04DX003 (ip), vehicle: saline with Tween-80 95 % of control | [9] 90 % of control | [10] 95 % of control

COC(=O)c1cc(Cl)c(C(=O)OC)cc1Cl
inactive: [7] 104 % of control | [11] 96 % of control | [8] 100 % of control

CCCCNc1ccc([N+](=O)[O-])cc1[N+](=O)[O-]
inactive: dose: 50.0 mg/kg/injection, schedule: Q01DX009 (ip), vehicle: other 95 % of control | dose: 100.0 mg/kg/injection, schedule: Q01DX009 (ip), vehicle: other 101 % of control | dose: 200.0 mg/kg/injection, schedule: Q01DX009 (ip), vehicle: other 105 % of control

CCC1(c2ccccc2)NC(=O)N(C)C1=O (stereo not given)
inactive: [12] 100 % of control | [7] 104 % of control | dose: 200.0 mg/kg/injection, schedule: Q01DX009 (ip), vehicle: Klucel (hydroxypropylcellulose) (HPC) 100 % of control | [11] 95 % of control | [8] 95 % of control

COCOS(C)(=O)=O
inactive: [6] 95 % of control | dose: 200.0 mg/kg/injection, schedule: Q04DX003 (ip), vehicle: saline 120 % of control

COc1cc2oc(-c3ccc(O)cc3O)c(CC=C(C)C)c(=O)c2c(O)c1/C=C/C(C)C
inactive: dose: 4.1 mg/kg/injection, schedule: Q01DX009 (ip), vehicle: Klucel (hydroxypropylcellulose) (HPC) 115 % of control | dose: 6.25 mg/kg/injection, schedule: Q01DX009 (ip), vehicle: Klucel (hydroxypropylcellulose) (HPC) 106 % of control | dose: 9.3 mg/kg/injection, schedule: Q01DX009 (ip), vehicle: Klucel (hydroxypropylcellulose) (HPC) 110 % of control | dose: 12.5 mg/kg/injection, schedule: Q01DX009 (ip), vehicle: Klucel (hydroxypropylcellulose) (HPC) 116 % of control | dose: 25.0 mg/kg/injection, schedule: Q01DX009 (ip), vehicle: Klucel (hydroxypropylcellulose) (HPC) 98 % of control | dose: 50.0 mg/kg/injection, schedule: Q01DX009 (ip), vehicle: Klucel (hydroxypropylcellulose) (HPC) 91 % of control | [12] 94 % of control

COc1cc(N/C(N)=N\C(N)=NC(C)C)cc(OC)c1OC
inactive: dose: 100.0 mg/kg/injection, schedule: Q04DX003 (ip), vehicle: saline sonified 95 % of control

NC(Cc1cccc(NP(=S)(N2CC2)N2CC2)c1)C(=O)O (stereo not given)
active: [5] 150 % of control | dose: 115.0 mg/kg/injection, schedule: Q04DX003 (ip), vehicle: saline 172 % of control | dose: 175.0 mg/kg/injection, schedule: Q04DX003 (ip), vehicle: saline 268 % of control | dose: 264.0 mg/kg/injection, schedule: Q04DX003 (ip), vehicle: saline 272 % of control | dose: 400.0 mg/kg/injection, schedule: Q04DX003 (ip), vehicle: saline 272 % of control
inactive: dose: 22.0 mg/kg/injection, schedule: Q04DX003 (ip), vehicle: saline 120 % of control | dose: 35.0 mg/kg/injection, schedule: Q04DX003 (ip), vehicle: saline 112 % of control | dose: 600.0 mg/kg/injection, schedule: Q04DX003 (ip), vehicle: saline 86 % of control

Cc1nnc2n1N=C(c1ccc(-c3ccccc3)cc1)CS2
inactive: [9] 104 % of control | [10] 92 % of control | [1] 93 % of control

C1=CC2C3=CC1C=CC32 (stereo not given)
inactive: dose: 18.75 mg/kg/injection, schedule: Q04DX003 (ip), vehicle: Klucel (hydroxypropylcellulose) (HPC) 91 % of control | dose: 37.5 mg/kg/injection, schedule: Q04DX003 (ip), vehicle: Klucel (hydroxypropylcellulose) (HPC) 95 % of control | dose: 75.0 mg/kg/injection, schedule: Q04DX003 (ip), vehicle: Klucel (hydroxypropylcellulose) (HPC) 91 % of control

Reference: PubChem BioAssay AID328 (DTP/NCI, 2004)
